Key:
barnyardgrass = test: Test C flooded paddy test; type: in vivo, Echinochloa crus-galli; conditions: Flood
Summary of the method: (§1)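 Ratings reflect visual comparison with controls on a 0–100 scale, where 100 is complete control. Compound is dosed into standing paddy water 3 cm deep over 2-leaf-stage plants, kept in the greenhouse 13 to 15 days.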

rice = test: Test C flooded paddy test; type: in vivo, Oryza sativa; conditions: Flood
Summary of the method: as §1

kochia [1] = test: Test C pre-/postemergence herbicide test; type: in vivo, Kochia scoparia
Summary of the method: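 Test compounds, formulated in a surfactant-containing non-phytotoxic solvent blend, are applied to seeded loam/sand soil (preemergence) and to young plants at the 1- to 4-leaf stage in peat-based medium (postemergence). Plants stay 13 to 15 days under greenhouse conditions, then are scored visually relative to controls, 0 = no effect, 100 = complete control.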

sedge, umbrella = test: Test C flooded paddy test; type: in vivo, Cyperus difformis; conditions: Flood
Summary of the method: as §1

velvetleaf = test: Test A pre-/postemergence herbicide test; type: in vivo, Abutilon theophrasti
Summary of the method: (§2)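 Planted in loam–sand blend; treated the same day preemergence by directed soil spray, while separately grown plants at one- to two-leaf stage got postemergence spray. Compared visually with untreated controls after approximately 10 days; 100 means complete control.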

ducksalad = test: Test C flooded paddy test; type: in vivo, Heteranthera limosa; conditions: Flood
Summary of the method: as §1

galium = test: Test A postemergence herbicide test; type: in vivo, Galium aparine
Summary of the method: (§3)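 Blackgrass and galium grown in pots of loam soil–sand blend, treated postemergence at 2–10 cm height, one- to two-leaf stage. Plants kept in greenhouse ~10 days, then visually rated for injury against untreated controls on a 0–100 scale (0 no effect, 100 complete control).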

ragweed = test: Test A pre-/postemergence herbicide test; type: in vivo, Ambrosia elatior
Summary of the method: as §2

ryegrass, Italian = test: Test A pre-/postemergence herbicide test; type: in vivo, Lolium multiflorum
Summary of the method: as §2

blackgrass = test: Test A postemergence herbicide test; type: in vivo, Alopecurus myosuroides
Summary of the method: as §3

kochia [2] = test: Test A pre-/postemergence herbicide test; type: in vivo, Kochia scoparia
Summary of the method: as §2

[3] = 31 g ai/ha, scale of 0 to 100 where 0 is no effect and 100 is complete control, 13 to 15 days
[4] = 62 g ai/ha, scale of 0 to 100 where 0 is no effect and 100 is complete control, 13 to 15 days
[5] = 125 g ai/ha, scale of 0 to 100 where 0 is no effect and 100 is complete control, 13 to 15 days
[6] = Postemergence, 500 g ai/ha, 0 to 100 scale (0 no effect, 100 complete control)
[7] = 250 g ai/ha, scale of 0 to 100 where 0 is no effect and 100 is complete control, 13 to 15 days
[8] = 125 g ai/ha, 0 to 100 scale, 0 is no effect, 100 is complete control
[9] = 125 g ai/ha, visual rating, 0 to 100 scale, 0 no effect, 100 complete control, approximately 10 days, preemergence
[10] = Postemergence, 125 g ai/ha, 0 to 100 scale, 0 is no effect, 100 is complete control
[11] = preemergence, 500 g ai/ha, 0 to 100 scale, 0 is no effect and 100 is complete control
[12] = Postemergence, 31 g ai/ha, scale 0 to 100 (0 no effect, 100 complete control)
[13] = Postemergence, 62 g ai/ha, scale 0 (no effect) to 100 (complete control)
[14] = Postemergence, 125 g ai/ha, scale 0 to 100 (0 no effect, 100 complete control)
[15] = Postemergence, 250 g ai/ha, scale 0 to 100 (0 no effect, 100 complete control)
[16] = 500 g ai/ha, 0 to 100 scale (0 no effect, 100 complete control)
[17] = Postemergence, 125 g ai/ha, visual rating on 0 to 100 scale (0 no effect, 100 complete control), approx. 10 days
[18] = Preemergence, 125 g ai/ha, 0 to 100 scale where 0 is no effect and 100 is complete control

SMILES | Plant response rating, Barnyardgrass (barnyardgrass; [4]) | Plant response rating, Barnyardgrass (barnyardgrass; [5]) | Plant response rating, Rice (rice; [4]) | Plant response rating, Rice (rice; [5]) | Plant response rating, Sedge, Umbrella (sedge, umbrella; [4]) | Plant response rating, Sedge, Umbrella (sedge, umbrella; [5]) | Plant response rating, Ducksalad (ducksalad; [4]) | Plant response rating, Ducksalad (ducksalad; [5]) | Plant response rating, Barnyardgrass (barnyardgrass; [7]) | Plant response rating, Galium (galium; [8]) | Plant response rating, Ragweed (ragweed; [11]) | Plant response rating, Rice (rice; [7]) | Plant response rating, Ryegrass, Italian (ryegrass, Italian; [11]) | Plant response rating, Kochia (kochia [1]; [12]) | Plant response rating, Kochia (kochia [1]; [13]) | Plant response rating, Kochia (kochia [1]; [14]) | Plant response rating, Kochia (kochia [1]; [15]) | Plant response rating, Sedge, Umbrella (sedge, umbrella; [7]) | Plant response rating, Blackgrass (blackgrass; [8]) | Plant response rating, Ducksalad (ducksalad; [7]) | also measured
O=C1NCC(c2ccc(F)cc2)C1C(=O)Nc1ccccc1F (racemic) [Compound 16] | 0 | 0 | 0 | 0 | 0 | 0 | 40 | 85 | – | – | – | – | – | – | – | – | – | – | – | – | Plant response rating, Barnyardgrass (barnyardgrass; [3]): 0; Plant response rating, Barnyardgrass (barnyardgrass; 250 g ai/ha, scale 0 to 100): 15; Plant response rating, Rice (rice; [3]): 0; Plant response rating, Rice (rice; 250 g ai/ha, scale 0 to 100): 0; Plant response rating, Kochia (kochia [1]; Preemergence, 62 g ai/ha, scale 0 to 100): 0; Plant response rating, Kochia (kochia [1]; Preemergence, 125 g ai/ha, scale 0 to 100 (0 no effect, 100 complete control)): 0; Plant response rating, Sedge, Umbrella (sedge, umbrella; [3]): 0; Plant response rating, Sedge, Umbrella (sedge, umbrella; 250 g ai/ha, scale 0 to 100): 0; Plant response rating, Velvetleaf (velvetleaf; Postemergence, 125 g ai/ha, 0 to 100 scale, 0 no effect, 100 complete control): 0; Plant response rating, Velvetleaf (velvetleaf; [6]): 0; Velvetleaf plant response rating (velvetleaf; Preemergence, 125 g ai/ha, visual rating on 0 to 100 scale (0 no effect, 100 complete control)): 0; Plant response rating, Velvetleaf (velvetleaf; preemergence, 500 g ai/ha, 0 to 100 scale): 0; Plant response rating, Ducksalad (ducksalad; [3]): 0; Plant response rating, Ducksalad (ducksalad; 250 g ai/ha, scale 0 to 100): 100
O=C1NCC(c2cccc(C(F)(F)F)c2)C1C(=O)Nc1ccc(F)cc1F (racemic) [Compound 207] | – | 40 | – | 15 | – | 0 | – | 60 | 60 | 0 | 20 | 15 | 40 | 0 | 0 | 0 | 30 | 0 | 70 | 75 | Plant response rating, Barnyardgrass (barnyardgrass; 500 g ai/ha, scale 0 to 100): 70; Plant response rating, Barnyardgrass (barnyardgrass; 1000 g ai/ha, scale 0 to 100): 75; Galium plant response rating (0 to 100 scale, 0 is no effect, 100 is complete control) (galium; 500 g ai/ha): 50; Plant response rating, Ragweed (ragweed; [9]): 0; Plant response rating, Ragweed (ragweed; [10]): 0; Ragweed plant response rating (0 to 100 scale, 0 is no effect, 100 is complete control) (ragweed; Postemergence, 500 g ai/ha): 0; Plant response rating, Rice (rice; 500 g ai/ha, scale 0 to 100): 15; Plant response rating, Rice (rice; 1000 g ai/ha, scale 0 to 100): 15; Plant response rating, Ryegrass, Italian (ryegrass, Italian; [9]): 20; Plant response rating, Ryegrass, Italian (ryegrass, Italian; [10]): 0; Ryegrass, Italian plant response rating (0 to 100 scale, 0 is no effect, 100 is complete control) (ryegrass, Italian; Postemergence, 500 g ai/ha): 50; Plant response rating, Sedge, Umbrella (sedge, umbrella; 500 g ai/ha, scale 0 to 100): 0; Plant response rating, Sedge, Umbrella (sedge, umbrella; 1000 g ai/ha, scale 0 to 100): 0; Blackgrass plant response rating (0 to 100 scale, 0 is no effect, 100 is complete control) (blackgrass; 500 g ai/ha): 70; Plant response rating, Ducksalad (ducksalad; 500 g ai/ha, scale 0 to 100): 100; Plant response rating, Ducksalad (ducksalad; 1000 g ai/ha, scale 0 to 100): 80; Plant response rating, Kochia (kochia [2]; [9]): 20; Plant response rating, Kochia (kochia [2]; [10]): 0; Kochia plant response rating (0 to 100 scale, 0 is no effect, 100 is complete control) (kochia [2]; Postemergence, 500 g ai/ha): 0; Plant response rating, Kochia (kochia [2]; [11]): 30
O=C1NCC(c2cccc(Cl)c2)C1C(=O)Nc1cccc(F)c1F (racemic) [Compound 275] | 35 | 45 | 0 | 0 | 0 | 0 | 85 | 100 | 60 | 60 | 40 | 10 | 60 | 70 | 85 | 85 | 85 | 0 | 50 | 100 | Plant response rating, Barnyardgrass (barnyardgrass; 500 g ai/ha, scale 0 to 100): 70; Plant response rating, Galium (galium; [16]): 70; Plant response rating, Ragweed (ragweed; [17]): 30; Plant response rating, Ragweed (ragweed; [6]): 30; Plant response rating, Ragweed (ragweed; [18]): 20; Plant response rating, Rice (rice; 500 g ai/ha, scale 0 to 100): 10; Plant response rating, Ryegrass, Italian (ryegrass, Italian; [17]): 30; Plant response rating, Ryegrass, Italian (ryegrass, Italian; [6]): 50; Plant response rating, Ryegrass, Italian (ryegrass, Italian; [18]): 30; Plant response rating, Sedge, Umbrella (sedge, umbrella; 500 g ai/ha, scale 0 to 100): 0; Plant response rating, Blackgrass (blackgrass; [16]): 60; Plant response rating, Ducksalad (ducksalad; 500 g ai/ha, scale 0 to 100): 100; Plant response rating, Kochia (kochia [2]; [10]): 50; Plant response rating, Kochia (kochia [2]; [6]): 80; Plant response rating, Kochia (kochia [2]; [18]): 60; Plant response rating, Kochia (kochia [2]; [11]): 80
O=C1NCC(c2cccc(OC(F)F)c2)C1C(=O)Nc1ccccc1F (stereo not shown) [Compound 223] | 0 | 0 | 0 | 0 | 0 | 0 | 50 | 65 | 0 | 50 | 50 | 0 | 60 | 0 | 5 | 30 | 60 | 0 | 60 | 95 | Plant response rating, Barnyardgrass (barnyardgrass; [3]): 0; Galium plant response rating (0 to 100 scale, 0 is no effect, 100 is complete control) (galium; 500 g ai/ha): 60; Plant response rating, Ragweed (ragweed; [9]): 30; Plant response rating, Ragweed (ragweed; [10]): 0; Ragweed plant response rating (0 to 100 scale, 0 is no effect, 100 is complete control) (ragweed; Postemergence, 500 g ai/ha): 30; Plant response rating, Rice (rice; [3]): 0; Plant response rating, Ryegrass, Italian (ryegrass, Italian; [9]): 30; Plant response rating, Ryegrass, Italian (ryegrass, Italian; [10]): 0; Ryegrass, Italian plant response rating (0 to 100 scale, 0 is no effect, 100 is complete control) (ryegrass, Italian; Postemergence, 500 g ai/ha): 40; Plant response rating, Sedge, Umbrella (sedge, umbrella; [3]): 0; Blackgrass plant response rating (0 to 100 scale, 0 is no effect, 100 is complete control) (blackgrass; 500 g ai/ha): 70; Plant response rating, Ducksalad (ducksalad; [3]): 30; Plant response rating, Kochia (kochia [2]; [9]): 30; Plant response rating, Kochia (kochia [2]; [10]): 50; Kochia plant response rating (0 to 100 scale, 0 is no effect, 100 is complete control) (kochia [2]; Postemergence, 500 g ai/ha): 70; Plant response rating, Kochia (kochia [2]; [11]): 80
O=C1NCC(c2ccc(C(F)(F)F)cc2)C1C(=O)Nc1ccc(F)c(F)c1F (stereo not shown) [Compound 232] | 30 | 40 | 0 | 0 | 0 | 0 | 75 | 75 | 60 | 60 | 90 | 15 | 80 | 60 | 70 | 70 | 75 | 0 | 50 | 95 | Plant response rating, Barnyardgrass (barnyardgrass; [3]): 0; Galium plant response rating (0 to 100 scale, 0 is no effect, 100 is complete control) (galium; 500 g ai/ha): 60; Plant response rating, Ragweed (ragweed; [9]): 30; Plant response rating, Ragweed (ragweed; [10]): 20; Ragweed plant response rating (0 to 100 scale, 0 is no effect, 100 is complete control) (ragweed; Postemergence, 500 g ai/ha): 50; Plant response rating, Rice (rice; [3]): 0; Plant response rating, Ryegrass, Italian (ryegrass, Italian; [9]): 40; Plant response rating, Ryegrass, Italian (ryegrass, Italian; [10]): 40; Ryegrass, Italian plant response rating (0 to 100 scale, 0 is no effect, 100 is complete control) (ryegrass, Italian; Postemergence, 500 g ai/ha): 50; Plant response rating, Sedge, Umbrella (sedge, umbrella; [3]): 0; Blackgrass plant response rating (0 to 100 scale, 0 is no effect, 100 is complete control) (blackgrass; 500 g ai/ha): 50; Plant response rating, Ducksalad (ducksalad; [3]): 50; Plant response rating, Kochia (kochia [2]; [9]): 70; Plant response rating, Kochia (kochia [2]; [10]): 80; Kochia plant response rating (0 to 100 scale, 0 is no effect, 100 is complete control) (kochia [2]; Postemergence, 500 g ai/ha): 90; Plant response rating, Kochia (kochia [2]; [11]): 80
